# Target: T1, PimA (Mycolicibacterium smegmatis, UniProt A0QWG6)
# T1 construct: recombinant from pET29a-pimA in E. coli BL21(DE3) pLysS; purified
# T1 sequence (A0QWG6 1-386): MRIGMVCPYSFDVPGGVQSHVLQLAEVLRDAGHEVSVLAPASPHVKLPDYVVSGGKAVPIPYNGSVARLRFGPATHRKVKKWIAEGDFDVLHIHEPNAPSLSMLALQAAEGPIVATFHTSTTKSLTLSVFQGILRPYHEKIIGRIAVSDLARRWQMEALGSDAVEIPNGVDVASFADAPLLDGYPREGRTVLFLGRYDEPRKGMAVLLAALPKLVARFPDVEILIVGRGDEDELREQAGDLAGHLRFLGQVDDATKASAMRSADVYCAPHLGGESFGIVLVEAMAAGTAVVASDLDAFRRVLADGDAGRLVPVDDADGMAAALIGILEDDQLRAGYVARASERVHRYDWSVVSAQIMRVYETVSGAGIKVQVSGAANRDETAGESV
# Test: thermal unfolding by far-UV CD at […] nm
# Type: binding
# Conditions: 10 mM Tris-HCl, pH 7.5; 10 uM protein, ligand 1:15
compound,measurement,value
Nc1nc2c(ncn2[C@@H]2O[C@H](COP(=O)(O)OP(=O)(O)O)[C@@H](O)[C@H]2O)c(=O)[nH]1 [GDP],Tm,"after the addition of GDP, wild-type PimA, PimA^R144C, and PimA^R144C-TFA displayed a clear increase"
